Among the data in US12187728B2 (Raze Therapeutics, Inc., priority 2015, dated 2025) are IC50 values, retold here.

SMILES strings stand for the structures. pIC50: −log10 of the molar value.

In this test the target is T1, Human MTHFD2 (Homo sapiens, UniProt P13995).
T1 construct: residues 36-350 in Uniport ID P13995; His6 (N); made in house; host or cells: E. coli
T1 sequence (P13995 36-350): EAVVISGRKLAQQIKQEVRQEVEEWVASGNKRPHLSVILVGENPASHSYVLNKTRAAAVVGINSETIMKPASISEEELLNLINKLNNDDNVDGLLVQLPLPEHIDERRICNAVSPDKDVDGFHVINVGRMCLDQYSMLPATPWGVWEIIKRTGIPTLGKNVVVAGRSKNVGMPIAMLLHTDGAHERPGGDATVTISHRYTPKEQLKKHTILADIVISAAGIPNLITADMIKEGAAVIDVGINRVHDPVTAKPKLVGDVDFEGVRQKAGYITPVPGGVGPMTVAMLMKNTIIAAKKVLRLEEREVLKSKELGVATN
As to the kind of experiment: MTHFD2 Activity Assay (dehydrogenase activity, diaphorase/resazurin coupled fluorescence). It is filed as biochemical. The settings on record: inhibitory activity (IC50 and/or binding constant); 0.2 nM MTHFD2, 11 concentrations. From the text:
Human MTHFD2 (residues 36-350 in Uniport ID P13995) was expressed as an N-terminal His6 tagged protein and purified in E. coli using nickel capture followed by size-exclusion chromatography.
MTHFD2 dehydrogenase activity oxidizes methylene tetrahyrofolate to methenyl-tetrahydrofolate with the concomitant reduction of NAD to NADH. MTHFD2 dehydrogenase activity was followed by coupling the generation of NADH to diaphorase catalyzed […] of resazurin to fluorescent resorufin. Briefly, control (DMSO) or compound was incubated with 0.2 nM MTHFD2 for 15 minutes in 10.5 μl assay buffer containing 100 mM Hepes, pH 8.0, 5 mM MgCl2, 5 mM KH2PO4, 0.05% BSA, 0.01% Tween-20 in a 384 well Griener, low volume, black plate. 10 μl of substrate buffer containing 70 μM CH2-THF, 1 mM NAD^+, 100 μM Resazurin and 0.42 mg/ml diaphorase was then added to initiate the reaction and the reaction plate was incubated for 30 minutes. 5 μl of 250 mM EDTA was then added to each well to stop the reaction and MTHFD2 activity was quantified by measuring resorufin fluorescence emission at 598 nm following excitation at 525 nm. Activity in positive control wells containing the complete reaction mixture and DMSO alone was set to 100% while activity in negative control wells with the complete reaction mix without MTHFD2 was set to 0%. 11 concentrations of each compound were tested and the fluorescent data at each concentration was normalized to the positive and negative controls and represented as % inhibition. Median inhibitory concentration (IC50) was calculated by fitting % inhibition at each concentration to a 4 parameter logistic fit equation using Graphpad Prizm.
The compound numbers correspond to the compound numbers in Table A (i.e., the example numbers).
(In general: Resazurin is reduced to fluorescent resorufin, in cell work by metabolically active cells.)
For orientation: pIC50 means the negative decadic logarithm of the IC50, by convention in mol/L. Read a low pIC50 as a high IC50. In turn, `Cn1c(Nc2ccc(Cl)nc2)nc2c1c(=O)n(Cc1cc3c(Cl)cccc3[nH]1)c(=O)n2C` [Example 381, 1-((4-chloro-1H-indol-2-yl)methyl)-8-(6-chloropyridin-3-ylamino)-3,7-dimethyl-1H-purine-2,6(3H,7H)-dione] gave a pIC50 of 6.00 to 8.00.
`Cn1c(N[C@H]2CC[C@@H](O)C2)nc2c1c(=O)n(Cc1ccc3sccc3c1)c(=O)n2C` (racemic) [Example 74, (±)-1-(1-benzothiophen-5-ylmethyl)-8-{[(cis)-3-hydroxycyclopentyl]amino}-3,7-dimethyl-2,3,6,7-tetrahydro-1H-purine-2,6-dione or (±)-1-(1-benzothiophen-5-ylmethyl)-8-{[(trans)-3-hydroxycyclopentyl]amino}-3,7-dimethyl-2,3,6,7-tetrahydro-1H-purine-2,6-dione] showed a pIC50 of 6.00 to 8.00.
In turn, `Cn1c(Nc2ccc(CC(=O)O)cc2)nc2c1c(=O)n(Cc1ccc(Cl)c(Cl)c1)c(=O)n2C` [Example 288, 2-(4-((1-(3,4-dichlorobenzyl)-3,7-dimethyl-2,6-dioxo-2,3,6,7-tetrahydro-1H-purin-8-yl)amino)phenyl)acetic acid] showed a negative logarithm of the IC50 (pIC50) of 6.00 to 8.00.
The same measure for `CNC(C)c1nc2c(c(=O)n(Cc3cc4c(Cl)cccc4[nH]3)c(=O)n2C)n1C` (stereo not shown) [Example 438, 1-[(4-chloro-1H-indol-2-yl)methyl]-3,7-dimethyl-8-[1-(methylamino)ethyl]purine-2,6-dione]: 6.00 to 8.00.
The same measure for `Cn1c(NCc2cnccn2)nc2c1c(=O)n(Cc1ccc(Cl)c(Cl)c1)c(=O)n2C` [Example 116, 1-(3,4-dichlorobenzyl)-3,7-dimethyl-8-(pyrazin-2-ylmethylamino)-1H-purine-2,6(3H,7H)-dione]: 5.30 to 6.00; for `CC(N)c1nc2c(c(=O)n(Cc3ccc4c(C5CC5)cccc4c3)c(=O)n2C)n1C` (stereo not shown) [Example 452, 8-(1-aminoethyl)-1-((5-cyclopropylnaphthalen-2-yl)methyl)-3,7-dimethyl-1H-purine-2,6(3H,7H)-dione]: 6.00 to 8.00.
`Cn1c(C(O)C2CCC(C(=O)O)CC2)nc2c1c(=O)n(Cc1ccc(Cl)c(Cl)c1)c(=O)n2C` (stereo not shown) [Example 270, 4-((1-(3,4-dichlorobenzyl)-3,7-dimethyl-2,6-dioxo-2,3,6,7-tetrahydro-1H-purin-8-yl)(hydroxy)methyl)cyclohexanecarboxylic acid] had a pIC50 of 5.30 to 6.00.
The result for `Cn1c(Nc2ccc(CO)cc2)nc2c1c(=O)n(Cc1cc3c(Cl)cccc3[nH]1)c(=O)n2C` [Example 432, 1-((4-chloro-1H-indol-2-yl)methyl)-8-(4-(hydroxymethyl)phenylamino)-3,7-dimethyl-1H-purine-2,6(3H,7H)-dione] reads 6.00 to 8.00; that for `Cc1ccc2[nH]c(Cn3c(=O)c4c(nc(Nc5cc[nH]c(=O)n5)n4C)n(C)c3=O)cc2c1` [Example 190, 3,7-dimethyl-1-((5-methyl-1H-indol-2-yl)methyl)-8-(2-oxo-1,2-dihydropyrimidin-4-ylamino)-1H-purine-2,6(3H,7H)-dione], 6.00 to 8.00.
In turn, `C[C@@H](N)c1nc2c(c(=O)n(Cc3cc4c(Cl)cccc4[nH]3)c(=O)n2C)n1C` (single isomer, unassigned) [Example 436, (R)-8-(1-aminoethyl)-14(4-chloro-1H-indol-2-yl)methyl)-3,7-dimethyl-1H-purine-2,6(3H,7H)-dione or (S)-8-(1-aminoethyl)-1-((4-chloro-1H-indol-2-yl)methyl)-3,7-dimethyl-1H-purine-2,6(3H,7H)-dione] showed a pIC50 of 6.00 to 8.00.
In the case of `Cn1c(NCCCO)nc2c1c(=O)n(Cc1ccc(Cl)c(F)c1)c(=O)n2C` [Example 23, 1-[(4-chloro-3-fluorophenyl)methyl]-8-[(3-hydroxypropyl)amino]-3,7-dimethyl-2,3,6,7-tetrahydro-1H-purine-2,6-dione], the negative logarithm of the IC50 (pIC50) is 5.30 to 6.00.
The same measure for `Cc1ccc2[nH]c(Cn3c(=O)c4c(nc(Nc5ncn[nH]5)n4C)n(C)c3=O)cc2c1` [Example 202, 8-(1H-1,2,4-triazol-5-ylamino)-3,7-dimethyl-1-((5-methyl-1H-indol-2-yl)methyl)-1H-purine-2,6(3H,7H)-dione]: 5.30 to 6.00; for `Cn1c(NCCCO)nc2c1c(=O)n(Cc1ccc(C(F)(F)F)c(Cl)c1)c(=O)n2C` [Example 73, 1-{[3-chloro-4-(trifluoromethyl)phenyl]methyl}-8-[(3-hydroxypropyl)amino]-3,7-dimethyl-2,3,6,7-tetrahydro-1H-purine-2,6-dione]: 5.30 to 6.00; for `Cn1c(NC2CNC2)nc2c1c(=O)n(Cc1ccc(Cl)c(Cl)c1)c(=O)n2C` [Example 65, 8-[(azetidin-3-yl)amino]-1-[(3,4-dichlorophenyl)methyl]-3,7-dimethyl-2,3,6,7-tetrahydro-1H-purine-2,6-dione]: 5.30 to 6.00.
Compound `Cn1c(Nc2ccncc2)nc2c1c(=O)n(Cc1cc3c(Cl)cccc3[nH]1)c(=O)n2C1CC1` [Example 466, 1-[(4-chloro-1H-indol-2-yl)methyl]-3-cyclopropyl-7-methyl-8-(4-pyridylamino)purine-2,6-dione] had a pIC50 of 6.00 to 8.00.
The result for `Cn1c(Nc2ccnc(CCC(N)=O)c2)nc2c1c(=O)n(Cc1ccc(Cl)c(Cl)c1)c(=O)n2C` [Example 283, 3-(4-(1-(3,4-dichlorobenzyl)-3,7-dimethyl-2,6-dioxo-2,3,6,7-tetrahydro-1H-purin-8-ylamino)pyridin-2-yl)propanamide] reads 6.00 to 8.00.
`Cn1c(Nc2ccccn2)nc2c1c(=O)n(Cc1cc3c(Cl)cccc3[nH]1)c(=O)n2C` [Example 302, 1-((4-chloro-1H-indol-2-yl)methyl)-3,7-dimethyl-8-(pyridin-2-ylamino)-1H-purine-2,6(3H, 7H)-dione] showed a pIC50 of 6.00 to 8.00.
The same measure for `Cn1c(N2CCCC(N)C2)nc2c1c(=O)n(Cc1cc3c(Cl)cccc3[nH]1)c(=O)n2C` (stereo not shown) [Example 371, 8-(3-aminopiperidin-1-yl)-1-((4-chloro-1H-indol-2-yl)methyl)-3,7-dimethyl-1H-purine-2,6(3H,7H)-dione]: 6.00 to 8.00.
The result for `Cn1c(Nc2ccnc(CNC(N)=O)n2)nc2c1c(=O)n(Cc1cc3c(Cl)cccc3[nH]1)c(=O)n2C` [Example 462, 1-((4-(1-((4-chloro-1H-indol-2-yl)methyl)-3,7-dimethyl-2,6-dioxo-2,3,6,7-tetrahydro-1H-purin-8-ylamino)pyrimidin-2-yl)methyl)urea] reads 6.00 to 8.00; that for `CC(N)c1nc2c(c(=O)n(Cc3cc4c(Cl)cccc4[nH]3)c(=O)n2C)n1C` (stereo not shown) [Example 389, 8-(1-aminoethyl)-1-[(4-chloro-1H-indol-2-yl)methyl]-3,7-dimethyl-purine-2,6-dione], 6.00 to 8.00.
`C[C@@H](Nc1nc2c(c(=O)n(Cc3ccc(Cl)c(Cl)c3)c(=O)n2C)n1C)C(=O)O` [Example 169, (R)-2-(1-(3,4-dichlorobenzyl)-3,7-dimethyl-2,6-dioxo-2,3,6,7-tetrahydro-1H-purin-8-ylamino)propanoic acid]: the negative-log IC50 (pIC50) is 6.00 to 8.00.
The result for `Cn1c(N[C@H]2CC[C@@H](C(=O)O)C2)nc2c1c(=O)n(Cc1ccc(Cl)c(Cl)c1)c(=O)n2C` [Example 64, (1R,3S)-3-(1-(3,4-dichlorobenzyl)-3,7-dimethyl-2,6-dioxo-2,3,6,7-tetrahydro-1H-purin-8-ylamino)cyclopentanecarboxylic acid] reads 6.00 to 8.00; that for `Cn1c(NC(=O)C(F)(F)F)nc2c1c(=O)n(Cc1cc3c(Cl)cccc3[nH]1)c(=O)n2C` [Example 422, N-[1-[(4-chloro-1H-indol-2-yl)methyl]-3,7-dimethyl-2,6-dioxo-purin-8-yl]-2,2,2-trifluoro-acetamide], 6.00 to 8.00; that for `Cn1c(=O)n(Cc2ccc(Cl)c(Cl)c2)c(=O)c2c1nc(NC1CCCC(C(=O)O)C1)n2CCO` (stereo not shown) [Example 316, 3-(1-(3,4-dichlorobenzyl)-7-(2-hydroxyethyl)-3-methyl-2,6-dioxo-2,3,6,7-tetrahydro-1H-purin-8-ylamino)cyclohexanecarboxylic acid], 6.00 to 8.00.
`Cn1c(Nc2ccnc([C@H]3C[C@@H]3C(=O)O)c2)nc2c1c(=O)n(Cc1ccc(Cl)c(Cl)c1)c(=O)n2C` (racemic) [Example 279, (±)-trans-2-(4-((1-(3,4-dichlorobenzyl)-3,7-dimethyl-2,6-dioxo-2,3,6,7-tetrahydro-1H-purin-8-yl)amino)pyridin-2-yl)cyclopropanecarboxylic acid] gave a negative logarithm of the IC50 (pIC50) of 6.00 to 8.00.
